Test results published in patent USRE47786E1, “Haloalkyl heteroaryl benzamide compounds” (Romark Laboratories, L.C., priority 2009, dated 2019).
pEC50: −log10 of the molar value.

Columns and labels:
[1] = system: HBV; assay: HBV extracellular virion antiviral assay in 2.2.15 cells; format: cell-based; details: Hepatitis B virus, extracellular virion HBV DNA, nine daily doses
Method: (§1) HBV antiviral assays were conducted as previous described [Korba and Gerin, Antiviral Res. 19:55 (1992 Confluent cultures of 2.2.15 cells were maintained on 96-well flat-bottomed tissue culture plates (confluence in this culture system is required for active, high levels of HBV replication equivalent to that observed in chronically-infected individuals [Sells et al. J. Virol. 62, 2836-2844 (1988); Korba and Gerin (1992)]. Cultures were treated with nine consecutive daily doses of the test compounds. HBV DNA levels were assessed by quantitative blot hybridization 24 hr. after the last treatment. Cytotoxicity was assessed by uptake of neutral red dye 24 hr. following the last treatment.
EC50, EC90 and CC50 values (±standard deviations [S.D.]) were calculated by linear regression analysis using data combined from all treated cultures (Korba and Gerin, 1992; Okuse et al., 2005). […] CC50 is the drug concentration at which a 2-fold lower level of neutral red dye uptake (relative to the average levels in untreated cultures) was observed. Selectivity index (S.I.) was calculated as CC50/EC90 for HBV assays and CC50/EC50 for HCV assays. EC90 values were used for calculation of the S.I. in HBV assays since at least a 3-fold depression of HBV DNA levels is typically required to achieve statistical significance in this assay system (Korba and Gerin, 1992). For combination treatments, EC50, EC90, CC50 and S.I. are presented for the first compound listed. The molar ratio of the compounds in each combination is also indicated.

[2] = Cytotoxicity by neutral red dye uptake in HBV assay cultures; format: cell-based; details: human, confluent 2.2.15 cells (HBV-replicating), nine daily doses
Method: as §1
(§2) EC50, EC90 and CC50 values (±standard deviations [S.D.]) were calculated by linear regression analysis using data combined from all treated cultures (Korba and Gerin, 1992; Okuse et al., 2005). EC50 and EC90 are drug concentrations at which a 2-fold, or a 10-fold depression of intracellular HBV DNA or HCV RNA (relative to the average levels in untreated cultures), respectively, was observed. CC50 is the drug concentration at which a 2-fold lower level of neutral red dye uptake (relative to the average levels in untreated cultures) was observed. Selectivity index (S.I.) was calculated as CC50/EC90 for HBV assays and CC50/EC50 for HCV assays. EC90 values were used for calculation of the S.I. in HBV assays since at least a 3-fold depression of HBV DNA levels is typically required to achieve statistical significance in this assay system (Korba and Gerin, 1992). For combination treatments, EC50, EC90, CC50 and S.I. are presented for the first compound listed. The molar ratio of the compounds in each combination is also indicated.

[3] = system: Hep-2 cells; details: human
[4] = system: HCV replicon cell line, AVAS (sub-genomic CONI, genotype 1b); assay: Primary HCV replicon cell assay, genotype 1B; format: cell-based; details: Hepatitis C virus, 72 h
Method: (§3) Antiviral activity of test compounds was assessed in a 3-day assay using the stably-expressing HCV replicon cell line, AVAS (sub-genomic CONI, genotype 1b) [Blight et al., Science 290, 1972-1974 (2000)] maintained as sub-confluent cultures on 96-well plates as previously described (Okuse et al., Antiviral Research 65, 23-34 (2005)]. Antiviral activity was determined by blot hybridization analysis of intracellular HCV RNA (normalized to the level of cellular B-actin RNA in each culture sample) and cytotoxicity was assessed by neutral red dye uptake after 3 days of treatment. Additional studies were performed using Huh7 cells containing another HCV replicon, H/FL-Neo, a genotype 1a full length construct [Blight et al., J. Virol. 77, 3181-3190 (2003)]. For studies involving human serum, standard culture medium (which contains 10% fetal bovine serum) and assay conditions were maintained.
as §2

[5] = Cytotoxicity by neutral red dye uptake in HCV replicon cells; format: cell-based; details: human, HCV replicon cell line AVAS (sub-genomic CONI), HCV replicon cells genotype 1B
Method: as §3, §2

[6] = system: A72 cells; assay: Toxicity (MTT) in A72 cells
[7] = system: 37RC cells; assay: Toxicity (MTT) in 37RC cells
[8] = system: MDCK cells; assay: Toxicity (MTT) in MDCK cells
[9] = system: HeLa cells; assay: Toxicity (MTT) in HeLa cells
[10] = system: MA104 cells; assay: Toxicity (MTT) in MA104 cells (Rhabdovirus section)
[11] = system: HeLa R19 cells; assay: Toxicity (MTT) in HeLa R19 cells (Rhinovirus section)
[12] = system: HeLa R19 cells; assay: Toxicity (MTT) in HeLa R19 cells (Adenovirus section)
[13] = system: MA104 cells; assay: Toxicity (MTT) in MA104 cells (Rotavirus SA11 section)
[14] = system: MA104 cells; assay: Toxicity (MTT) in MA104 cells (Rotavirus WAG8P1 section)

SMILES: CC(=O)Oc1ccccc1C(=O)Nc1nc(C(F)(F)F)cs1 [Compound 3]
- pEC50 [1]: < 5.40
- EC90 [1]: > 4 µM
- CC50 at 9 days [2]: > 100 µM
- Toxicity LD50 (MTT) [3]: >50 µg/mL

SMILES: O=C(Nc1ncc(C(F)(F)F)s1)c1ccccc1O [Compound 2]
- pEC50 [1]: 5.40 to 5.49
- EC90 [1]: > 4 µM
- CC50 at 9 days [2]: > 100 µM
- pEC50 [4]: 7.30 to 8.30
- EC90 [4]: 0.005 to 0.05 µM
- CC50 at 3 days [5]: 0.46 µM
- melting point: 260 to 264 °C (dec.)

SMILES: O=C(Nc1ncc([N+](=O)[O-])s1)c1ccccc1O [Tizoxanide]
- pEC50 [1]: 6.70 to 7.30
- EC90 [1]: 0.8 to 3.2 µM
- CC50 at 9 days [2]: > 100 µM
- pEC50 [4]: 6.30 to 7.30
- EC90 [4]: 0.5 to 10 µM
- CC50 at 3 days [5]: 15 µM
- Toxicity LD50 (MTT) [3]: 50 µg/mL
- Toxicity LD50 (MTT) [6]: >50 µg/mL
- Toxicity LD50 (MTT) [7]: >50 µg/mL
- Toxicity LD50 (MTT) [8]: >50 µg/mL
- Toxicity LD50 (MTT) [9]: 3 µg/mL
- Toxicity LD50 (MTT) [10]: 50 µg/mL
- Toxicity LD50 (MTT) [11]: >50 µg/mL
- Toxicity LD50 (MTT) [12]: 0.8 µg/mL
- Toxicity LD50 (MTT) [13]: >50 µg/mL
- Toxicity LD50 (MTT) [14]: >50 µg/mL

SMILES: O=C(Nc1nc(C(F)(F)F)cs1)c1ccccc1O [Compound 4]
- pEC50 [1]: < 5.40
- EC90 [1]: > 4 µM
- CC50 at 9 days [2]: > 100 µM
- Toxicity LD50 (MTT) [3]: >50 µg/mL

SMILES: CC(=O)Oc1ccccc1C(=O)Nc1ncc([N+](=O)[O-])s1 [Nitazoxanide, reference compound]
- pEC50 [1]: 6.70 to 7.30
- EC90 [1]: 0.8 to 3.2 µM
- CC50 at 9 days [2]: > 100 µM
- pEC50 [4]: 6.30 to 7.30
- EC90 [4]: 0.5 to 10 µM
- CC50 at 3 days [5]: 32 µM
- Toxicity LD50 (MTT) [3]: >50 µg/mL
- Toxicity LD50 (MTT) [7]: >50 µg/mL
- Toxicity LD50 (MTT) [8]: >50 µg/mL
- Toxicity LD50 (MTT) [11]: >50 µg/mL
- Toxicity LD50 (MTT) [12]: >50 µg/mL
- Toxicity LD50 (MTT) [13]: >50 µg/mL
- Toxicity LD50 (MTT) [14]: >50 µg/mL

SMILES: CC(=O)Oc1ccccc1C(=O)Nc1ncc(C(F)(F)F)s1 [Compound 1]
- pEC50 [1]: 5.40 to 5.49
- EC90 [1]: > 4 µM
- CC50 at 9 days [2]: > 100 µM
- pEC50 [4]: > 5.30
- EC90 [4]: > 5 µM
- CC50 at 3 days [5]: 3.7 µM
- Toxicity LD50 (MTT) [3]: >50 µg/mL
- Toxicity LD50 (MTT) [11]: >50 µg/mL
- Toxicity LD50 (MTT) [12]: 4 µg/mL

SMILES: O=C(Nc1nnc(C(F)(F)F)s1)c1ccccc1O [Compound 6]
- pEC50 [1]: < 5.40
- EC90 [1]: > 4 µM
- CC50 at 9 days [2]: > 100 µM
- pEC50 [4]: > 5.30
- EC90 [4]: > 5 µM
- CC50 at 3 days [5]: 5.3 µM
- Toxicity LD50 (MTT) [3]: >50 µg/mL

SMILES: CC(=O)Oc1ccccc1C(=O)Nc1nnc(C(F)(F)F)s1 [Compound 5]
- pEC50 [1]: < 5.40
- EC90 [1]: > 4 µM
- CC50 at 9 days [2]: > 100 µM
- pEC50 [4]: > 5.30
- EC90 [4]: > 5 µM
- CC50 at 3 days [5]: 15 µM
- Toxicity LD50 (MTT) [7]: >50 µg/mL
- Toxicity LD50 (MTT) [8]: >50 µg/mL
